Test [1] concerns the target horse-serum BuChE (EC3.1.1.8) (Equus caballus, UniProt P81908). The test is described as follows: biochemical. In kind it is biochemical. Conditions: for Selectivity for BuChE/AChE: ratio IC50 BuChE / IC50 AChE; for IC50: substrate butyrylthiocholine, 37°C, pH 8.0.
The target of test [2] is Electric-eel AChE (EC 3.1.1.7) (Electrophorus electricus, UniProt O42275). The test is described as follows: biochemical. As to conditions: means ± standard deviation of triplicate independent experiments; substrate acetylthiocholine iodide; 37°C, pH 8.0.
The target of another test is BuChE (Equus caballus, UniProt P81908). In kind it is biochemical. As to conditions: Lineweaver-Burk plots, curves intersect at the secondary quadrant.
The next test deals with T1, AChE (Electrophorus electricus, UniProt O42275).
T1 construct: purchased Sigma
The test is described as follows: Enzyme kinetic assay on AChE (Lineweaver-Burk plots). The class given is biochemical, Electric-eel. Conditions: curves intersect at the secondary quadrant.

Setting [3] is: listed as 2-((diethylamino)methyl)-1-hydroxy-3-(3-methylbut-2-enyloxy)-9H-xanthen-9-one.

Like-named read-outs stand apart in the source and are kept apart here. Bounds are passed on as bounds.

Chain of horse-serum BuChE (EC3.1.1.8) (P81908 whole entry): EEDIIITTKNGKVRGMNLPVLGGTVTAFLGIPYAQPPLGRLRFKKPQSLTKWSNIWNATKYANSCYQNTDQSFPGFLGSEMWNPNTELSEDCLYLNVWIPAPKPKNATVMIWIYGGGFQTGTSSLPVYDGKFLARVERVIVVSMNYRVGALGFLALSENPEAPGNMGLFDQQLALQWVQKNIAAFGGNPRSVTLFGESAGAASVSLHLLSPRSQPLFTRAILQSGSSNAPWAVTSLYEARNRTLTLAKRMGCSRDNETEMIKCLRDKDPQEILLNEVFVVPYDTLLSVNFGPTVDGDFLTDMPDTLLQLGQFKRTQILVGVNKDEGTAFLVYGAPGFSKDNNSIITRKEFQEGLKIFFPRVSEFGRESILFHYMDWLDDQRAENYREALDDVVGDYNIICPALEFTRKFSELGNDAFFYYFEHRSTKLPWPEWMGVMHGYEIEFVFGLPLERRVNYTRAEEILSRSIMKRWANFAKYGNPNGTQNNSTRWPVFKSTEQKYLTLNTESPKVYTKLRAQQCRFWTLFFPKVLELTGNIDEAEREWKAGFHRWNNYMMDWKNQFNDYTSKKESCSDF
Chain of Electric-eel AChE (EC 3.1.1.7) (O42275 24-633): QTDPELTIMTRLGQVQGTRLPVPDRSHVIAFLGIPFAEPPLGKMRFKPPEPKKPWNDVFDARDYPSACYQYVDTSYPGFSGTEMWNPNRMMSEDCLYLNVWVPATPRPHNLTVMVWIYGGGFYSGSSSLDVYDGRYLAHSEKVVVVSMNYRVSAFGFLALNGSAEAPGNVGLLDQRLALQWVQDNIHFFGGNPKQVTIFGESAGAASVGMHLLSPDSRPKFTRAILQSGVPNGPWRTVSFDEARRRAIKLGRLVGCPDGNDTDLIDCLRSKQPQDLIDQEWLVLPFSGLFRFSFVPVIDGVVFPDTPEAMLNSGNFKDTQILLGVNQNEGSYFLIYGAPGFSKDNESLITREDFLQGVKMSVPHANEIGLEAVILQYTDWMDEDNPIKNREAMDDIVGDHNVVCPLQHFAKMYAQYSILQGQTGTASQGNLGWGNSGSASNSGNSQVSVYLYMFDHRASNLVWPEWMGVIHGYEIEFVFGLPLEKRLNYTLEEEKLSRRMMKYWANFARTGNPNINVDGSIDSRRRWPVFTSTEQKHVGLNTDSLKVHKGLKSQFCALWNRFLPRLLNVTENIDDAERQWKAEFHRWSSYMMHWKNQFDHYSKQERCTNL
Chain of BuChE (P81908 whole entry): as the sequence (P81908 whole entry) above
T1 sequence (O42275 24-633): as the sequence (O42275 24-633) above

In general, IC50 refers to the midpoint of a concentration-inhibition curve. Read a high IC50 as a need for much substance. Turning to `CN(C)Cc1c(O)cc2oc3ccccc3c(=O)c2c1O` [1a, 2-((dimethylamino)methyl)-1,3-dihydroxy-9H-xanthen-9-one], in test [1], the “Selectivity for BuChE/AChE” value is 0.59 and the IC50 came out at 62.9 ± 0.84 µM. Moreover, half-maximal inhibition in test [2] (IC50) was put at 107 ± 5.78 µM.
The corresponding values for `CCN(CC)Cc1c(O)cc2oc3ccccc3c(=O)c2c1O` [1b, 2-((diethylamino)methyl)-1,3-dihydroxy-9H-xanthen-9-one] are 0.50, 37 ± 0.56 µM and 73.7 ± 1.36 µM.
The corresponding values for `O=c1c2ccccc2oc2cc(O)c(CN3CCCC3)c(O)c12` [1c, 1,3-dihydroxy-2-(pyrrolidin-1-ylmethyl)-9H-xanthen-9-one] are 0.43, 35.5 ± 1.68 µM and 81.9 ± 2.04 µM.
Turning to `O=c1c2ccccc2oc2cc(O)c(CN3CCCCC3)c(O)c12` [1d, 1,3-dihydroxy-2-(piperidin-1-ylmethyl)-9H-xanthen-9-one], in test [1], the “Selectivity for BuChE/AChE” value is given as 0.54 and half-maximal inhibition (IC50) required 43 ± 1.76 µM. The molecule further gave an IC50 in test [2] of 79.3 ± 5.78 µM.
For the molecule `O=c1c2ccccc2oc2cc(O)c(CN3CCOCC3)c(O)c12` [1e, 1,3-dihydroxy-2-(morpholinomethyl)-9H-xanthen-9-one], in test [1], the “Inhibition activity against BuChE at 100 μM” value (“Inhibition activity” for short) is reported as “did not show any inhibition activity”, the “Selectivity for BuChE/AChE” value is on record as above 1.05 and the IC50 was above 100 µM. Half-maximal inhibition in test [2] (IC50) was put at 95.4 ± 1.7 µM.
`COc1cc2oc3ccccc3c(=O)c2c(O)c1CN(C)C` [2a, 2-((dimethylamino)methyl)-1-hydroxy-3-methoxy-9H-xanthen-9-one]: the “Selectivity for BuChE/AChE” value in test [1] came out at 4.66. The IC50 was 10.9 ± 0.2 µM in test [1] and 2.34 ± 0.2 µM in test [2].
The corresponding values for `CCN(CC)Cc1c(OC)cc2oc3ccccc3c(=O)c2c1O` [2b, 2-((diethylamino)methyl)-1-hydroxy-3-methoxy-9H-xanthen-9-one] are 2.83, 6.79 ± 0.56 µM and 2.4 ± 0.49 µM.
As to `COc1cc2oc3ccccc3c(=O)c2c(O)c1CN1CCCC1` [2c, 1-hydroxy-3-methoxy-2-(pyrrolidin-1-ylmethyl)-9H-xanthen-9-one], the “Selectivity for BuChE/AChE” value in test [1] is recorded as 1.72. Moreover, the figures for the 50% inhibitory concentration (IC50) in test [1] and in test [2] were 7.21 ± 0.75 µM and 4.2 ± 0.29 µM, respectively.
As for `COc1cc2oc3ccccc3c(=O)c2c(O)c1CN1CCCCC1` [2d, 1-hydroxy-3-methoxy-2-(piperidin-1-ylmethyl)-9H-xanthen-9-one], in test [1], the “Selectivity for BuChE/AChE” value was 1.53 and 10.6 ± 0.22 µM corresponded to half-maximal inhibition (IC50). The molecule further gave an IC50 in test [2] of 7 ± 0.07 µM.
For the molecule `COc1cc2oc3ccccc3c(=O)c2c(O)c1CN1CCOCC1` [2e, 1-hydroxy-3-methoxy-2-(morpholinomethyl)-9H-xanthen-9-one], in test [1], the “Inhibition activity” value is recorded as “did not show any inhibition activity”, the “Selectivity for BuChE/AChE” value is above 12.89 and the IC50 is above 100 µM. The molecule also gave an IC50 in test [2] of 7.76 ± 2.36 µM.
In the case of `C=CCOc1cc2oc3ccccc3c(=O)c2c(O)c1CN(C)C` [3a, 3-allyloxy-2-((dimethylamino)methyl)-1-hydroxy-9H-xanthen-9-one], the “Selectivity for BuChE/AChE” value in test [1] was 0.80. Further, the IC50 in test [1] came to 4.66 ± 0.64 µM; in test [2], 5.84 ± 1.19 µM.
With `C=CCOc1cc2oc3ccccc3c(=O)c2c(O)c1CN(CC)CC` [3b, 3-allyloxy-2-((diethylamino)methyl)-1-hydroxy-9H-xanthen-9-one], in test [1], the “Selectivity for BuChE/AChE” value is on record as 0.26 and the IC50 is 1.54 ± 0.14 µM. Moreover, the midpoint of inhibition in test [2], the IC50, lay at 6 ± 0.33 µM.
Consider `C=CCOc1cc2oc3ccccc3c(=O)c2c(O)c1CN1CCCC1` [3c, 3-allyloxy-1-hydroxy-2-(pyrrolidin-1-ylmethyl)-9H-xanthen-9-one], for which, in test [1], the “Selectivity for BuChE/AChE” value was found to be 0.70 and the IC50 turned out to be 3.05 ± 0.13 µM. This molecule gave an IC50 in test [2] of 4.36 ± 0.58 µM.
Turning to `C=CCOc1cc2oc3ccccc3c(=O)c2c(O)c1CN1CCCCC1` [3d, 3-allyloxy-1-hydroxy-2-(piperidin-1-ylmethyl)-9H-xanthen-9-one], in test [1], the “Selectivity for BuChE/AChE” value is reported as 0.47 and the 50% inhibitory concentration (IC50) was 1.73 ± 0.08 µM. For the same molecule, it took 3.7 ± 0.16 µM to reach half-maximal inhibition in test [2] (IC50).
Consider `C=CCOc1cc2oc3ccccc3c(=O)c2c(O)c1CN1CCOCC1` [3e, 3-allyloxy-1-hydroxy-2-(morpholinomethyl)-9H-xanthen-9-one], for which, in test [1], the “Inhibition activity” value is listed as “did not show any inhibition activity”, the “Selectivity for BuChE/AChE” value is above 1.34 and the IC50 is above 100 µM. This molecule displayed a 50% inhibitory concentration (IC50) in test [2] of 74.7 ± 4.07 µM.
On to `CC(C)=CCOc1cc2oc3ccccc3c(=O)c2c(O)c1CN(C)C` [4a, 2-((dimethylamino)methyl)-1-hydroxy-3-(3-methylbut-2-enyloxy)-9H-xanthen-9-one], for which, in test [1], the “Selectivity for BuChE/AChE” value is listed as 0.57 and the half-maximal inhibitory concentration (IC50) turned out to be 1.49 ± 0.03 µM. Also, the midpoint of inhibition in test [2], the IC50, lay at 2.63 ± 0.07 µM.
As for `CCN(CC)Cc1c(OCC=C(C)C)cc2oc3ccccc3c(=O)c2c1O` [4b, 2-((diethylamino)methyl)-1-hydroxy-3-(3-methylbut-2-enyloxy)-9H-xanthen-9-one], the “Inhibition mode on BuChE” value on BuChE is recorded as “mixed-type inhibition”; on BuChE (setting [3]), “mixed-type manner”. Moreover, the results for the “Inhibition mode on AChE” value at AChE and at AChE (setting [3]) were “mixed-type inhibition” and “mixed-type manner”, respectively. Further, the “Selectivity for BuChE/AChE” value in test [1] came to 0.20. In addition, the IC50 stood at 0.51 ± 0.01 µM in test [1] and 2.61 ± 0.13 µM in test [2].
Take `CC(C)=CCOc1cc2oc3ccccc3c(=O)c2c(O)c1CN1CCCC1` [4c, 1-hydroxy-3-(3-methylbut-2-enyloxy)-2-(pyrrolidin-1-ylmethyl)-9H-xanthen-9-one]: in test [1], the “Selectivity for BuChE/AChE” value turned out to be 0.49 and inhibition was half-maximal at 2.89 ± 0.07 µM (IC50). In addition, in test [2], 5.85 ± 0.32 µM corresponded to half-maximal inhibition (IC50).
The corresponding values for `CC(C)=CCOc1cc2oc3ccccc3c(=O)c2c(O)c1CN1CCCCC1` [4d, 1-hydroxy-3-(3-methylbut-2-enyloxy)-2-(piperidin-1-ylmethyl)-9H-xanthen-9-one] are 0.10, 5.61 ± 0.08 µM and 55.3 ± 8.15 µM.
For the molecule `CC(C)=CCOc1cc2oc3ccccc3c(=O)c2c(O)c1CN1CCOCC1` [4e], the “Selectivity for BuChE/AChE” value in test [1] came to 0.37. Also, the IC50 in test [1] amounted to 8.83 ± 0.36 µM; in test [2], 24.2 ± 0.4 µM.
